Drawing on patent US20260226086A1, “COMPOUNDS AND COMPOSITIONS AS STAT3 DEGRADERS AND USES THEREOF” (REGENTS OF THE UNIVERSITY OF MICHIGAN, priority 2023, published 2026), this text covers IC50, Dmax and DC50 for eight compounds.

What all share (type): cell-based
One test has as its system SUP-M2 cells. As to the kind of experiment: CellTiter-Glo 2.0 cell viability assay, SUP-M2. Particulars: 4 days. An outline of the steps:
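1000 cells per well exposed to serially diluted compounds for 4 days at 37 °C, 5% CO2. Viability measured by CellTiter-Glo 2.0 luminescence versus untreated cells; IC50 from four-parameter nonlinear fit of triplicate means.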
(In general: Cellular ATP, detected with luciferase, serves as a proxy for viable cell number.)

For the next test, the target named is T1, STAT3 (Homo sapiens, UniProt P40763).
T1 construct: This cell line is a clone created by using CRISPR-Cas9 to fuse HiBiT to the 3′ end of STAT3 in HeLa cells; host or cells: STAT3-HiBiT KI HeLa cell line (CRISPR-Cas9 knock-in clone)
T1 sequence (P40763 whole entry): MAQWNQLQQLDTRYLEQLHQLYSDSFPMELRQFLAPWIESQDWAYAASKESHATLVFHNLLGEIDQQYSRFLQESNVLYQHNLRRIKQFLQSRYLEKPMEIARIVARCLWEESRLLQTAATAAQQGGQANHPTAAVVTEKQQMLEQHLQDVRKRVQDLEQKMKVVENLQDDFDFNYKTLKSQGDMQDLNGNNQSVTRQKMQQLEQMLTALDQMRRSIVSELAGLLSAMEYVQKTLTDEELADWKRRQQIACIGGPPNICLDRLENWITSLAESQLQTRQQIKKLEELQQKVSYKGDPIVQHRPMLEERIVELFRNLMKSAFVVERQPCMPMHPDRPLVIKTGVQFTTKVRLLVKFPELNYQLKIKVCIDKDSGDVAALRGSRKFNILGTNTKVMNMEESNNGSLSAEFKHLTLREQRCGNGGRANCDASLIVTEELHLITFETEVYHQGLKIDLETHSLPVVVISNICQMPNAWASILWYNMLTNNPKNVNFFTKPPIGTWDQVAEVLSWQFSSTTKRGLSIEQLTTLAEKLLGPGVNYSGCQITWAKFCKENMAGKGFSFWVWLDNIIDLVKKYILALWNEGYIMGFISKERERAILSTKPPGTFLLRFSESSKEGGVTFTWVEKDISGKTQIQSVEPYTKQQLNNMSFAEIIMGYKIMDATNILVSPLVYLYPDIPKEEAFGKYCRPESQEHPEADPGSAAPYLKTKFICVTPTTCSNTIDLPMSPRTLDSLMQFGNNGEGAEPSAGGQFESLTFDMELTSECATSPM
As to the kind of experiment: HiBiT assay, STAT3 degradation in STAT3-HiBiT KI HeLa cells. Particulars: 24 h; for DC50: read-out: STAT3 Degradation (HeLa 24 h HiBit) DC50. An outline of the steps: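 HeLa cells with CRISPR knock-in of HiBiT at the STAT3 C-terminus, 20000 cells/well, treated with serial compound dilutions for 24 h at 37 °C, 5% CO2. Remaining STAT3 read by Nano-Glo HiBiT lytic luminescence versus untreated cells; IC50 from four-parameter nonlinear fit of triplicate means.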
(In general: With HiBiT, luminescence reflects the tagged protein that the partner subunit can reach.)

The next test concerns SU-DHL-1 cells. As to the kind of experiment: CellTiter-Glo 2.0 cell viability assay, SU-DHL-1. Particulars: Homo sapiens, 96 h, 4 days. The method, then:
For example, cell viability may be determined by CellTiter-Glo 2.0 Cell Viability Assay. In a typical procedure, cells seeded at certain amounts of cells (e.g., 1000 cells) per well are incubated with serially diluted compounds for certain period (e.g., 4 days) under certain conditions (e.g., at 37° C. with 5% CO2). At the end of treatment, CellTiter-Glo 2.0 is added to the wells and luminescence is acquired on TECAN SPARK plate reader. Untreated cells are used as control, Data points are fit with an equation (e.g., a four-parameter equation) to generate a concentration-response curve. IC50 values are calculated using a nonlinear regression analysis of the mean±SD from triplicate.
SU-DHL-1 and SUP-M2 cell viability was determined by CellTiter-Glo 2.0 Cell Viability Assay (Promega). SU-DHL-1 cell line was purchased from ATCC (Manassas, VA) and SUP-M2 (ACC-509) was purchased from DSMZ (Germany). RPMI 1640 medium and fetal bovine serum (FBS) were purchased from Gibco/Thermo Fisher Scientific. In a typical procedure, cells seeded at 1000 cells per well in 384-well white plates (Corning) were incubated with serially diluted compounds for 4 days at 37° C. with 5% C02. At the end of treatment, CellTiter-Glo 2.0 was added to the wells and luminescence was acquired on TECAN SPARK plate reader. Untreated cells were used as control. Data points were fit with a four-parameter equation to generate a concentration-response curve. IC50 values were calculated using a nonlinear regression analysis of the mean±SD from triplicate.

A value given as a limit tells only on which side of the number the result lay.

What is called IC50 is the concentration at which inhibition is half-maximal. In general, Dmax refers to the greatest extent of degradation seen. Lower therefore signals shallow degradation. One may read the DC50 as the concentration at which degradation of the target reaches its halfway point. In the test on SUP-M2 cells (SUP-M2, 96 h), `Cc1ncsc1-c1ccc([C@H](C)NC(=O)[C@@H]2C[C@@H](O)CN2C(=O)[C@@H](n2cc(CCCCC(=O)N3CC[C@H]4CC[C@@H](C(=O)N[C@@H](CCC(N)=O)COc5cccc(Cl)c5)N4C(=O)[C@@H](NC(=O)c4cc5cc(C(=O)P(=O)(O)O)ccc5[nH]4)C3)nn2)C(C)(C)C)cc1` [Compound 12, (2-(((5S,8S,10aR)-8-(((S)-5-amino-1-(3-chlorophenoxy)-5-oxopentan-2-yl)carbamoyl)-3-(5-(1-((S)-1-((2S,4R)-4-hydroxy-2-(((S)-1-(4-(4-methylthiazol-5-yl)phenyl)ethyl)carbamoyl)pyrrolidin-1-yl)-3,3-dimethyl-1-oxobutan-2-yl)-1H-1,2,3-triazol-4-yl)pentanoyl)-6-oxodecahydropyrrolo[1,2-a][1,5]diazocin-5-yl)carbamoyl)-1H-indole-5-carbonyl)phosphonic acid] displayed a concentration for half-maximal inhibition (IC50) of 0.01 to 0.1 µM. Moreover, at STAT3, the Dmax at 1 µM is greater than 80% and the DC50 is 0.01 to 0.1 µM. Besides, the IC50 with SU-DHL-1 cells was 0.1 to 1 µM.

`Cc1ncsc1-c1ccc([C@H](C)NC(=O)[C@@H]2C[C@@H](O)CN2C(=O)[C@@H](n2cc(CCCCC(=O)N3CC[C@H]4CC[C@@H](C(=O)N[C@@H](CCC(N)=O)C(=O)NC(c5ccccc5)c5ccccc5)N4C(=O)[C@@H](NC(=O)c4cc5cc(C(=O)P(=O)(O)O)ccc5[nH]4)C3)nn2)C(C)(C)C)cc1` [Compound 13, (2-(((5S,8S,10aR)-8-(((S)-5-amino-1-(benzhydrylamino)-1,5-dioxopentan-2-yl)carbamoyl)-3-(5-(1-((S)-1-((2S,4R)-4-hydroxy-2-(((S)-1-(4-(4-methylthiazol-5-yl)phenyl)ethyl)carbamoyl)pyrrolidin-1-yl)-3,3-dimethyl-1-oxobutan-2-yl)-1H-1,2,3-triazol-4-yl)pentanoyl)-6-oxodecahydropyrrolo[1,2-a][1,5]diazocin-5-yl)carbamoyl)-1H-indole-5-carbonyl)phosphonic acid] had a half-inhibitory concentration (IC50) with SUP-M2 cells of 0.01 to 0.1 µM. At STAT3, the greatest degradation seen (Dmax) at 1 µM was greater than 80% and the DC50 was 0.01 to 0.1 µM. In the test on SU-DHL-1 cells, the IC50 lay within 0.1 to 1 µM.

For the compound `CCS(=O)(=O)c1ccc(CNC(=O)[C@H](CCC(N)=O)NC(=O)[C@@H]2CC[C@@H]3CCN(C(=O)CCCCCc4cn([C@H](C(=O)N5C[C@H](O)C[C@H]5C(=O)N[C@@H](C)c5ccc(-c6scnc6C)cc5)C(C)(C)C)nn4)C[C@H](NC(=O)c4cc5cc(C(=O)P(=O)(O)O)ccc5[nH]4)C(=O)N32)cc1` [Compound 14, (2-(((5S,8S,10aR)-8-(((S)-5-amino-1-((4-(ethylsulfonyl)benzyl)amino)-1,5-dioxopentan-2-yl)carbamoyl)-3-(6-(1-((S)-1-((2S,4R)-4-hydroxy-2-(((S)-1-(4-(4-methylthiazol-5-yl)phenyl)ethyl)carbamoyl)pyrrolidin-1-yl)-3,3-dimethyl-1-oxobutan-2-yl)-1H-1,2,3-triazol-4-yl)hexanoyl)-6-oxodecahydropyrrolo[1,2-a][1,5]diazocin-5-yl)carbamoyl)-1H-indole-5-carbonyl)phosphonic acid], the IC50 with SUP-M2 cells (SUP-M2, 96 h) was less than 0.01 µM. Besides, on STAT3, the maximal degradation (Dmax) at 1 µM is greater than 80% and the DC50 is less than 0.01 µM. Moreover, the IC50 in the test with SU-DHL-1 cells was less than 0.01 µM.

For the compound `CCS(=O)(=O)c1ccc(CNC(=O)[C@H](CCC(N)=O)NC(=O)[C@@H]2CC[C@@H]3CCN(C(=O)CCCCCCc4cn([C@H](C(=O)N5C[C@H](O)C[C@H]5C(=O)N[C@@H](C)c5ccc(-c6scnc6C)cc5)C(C)(C)C)nn4)C[C@H](NC(=O)c4cc5cc(C(=O)P(=O)(O)O)ccc5[nH]4)C(=O)N32)cc1` [Compound 15, (2-(((5S,8S,10aR)-8-(((S)-5-amino-1-((4-(ethylsulfonyl)benzyl)amino)-1,5-dioxopentan-2-yl)carbamoyl)-3-(7-(1-((S)-1-((2S,4R)-4-hydroxy-2-(((S)-1-(4-(4-methylthiazol-5-yl)phenyl)ethyl)carbamoyl)pyrrolidin-1-yl)-3,3-dimethyl-1-oxobutan-2-yl)-1H-1,2,3-triazol-4-yl)heptanoyl)-6-oxodecahydropyrrolo[1,2-a][1,5]diazocin-5-yl)carbamoyl)-1H-indole-5-carbonyl)phosphonic acid], the IC50 in the test on SUP-M2 cells (SUP-M2, 96 h) was in the range of 0.01 to 0.1 µM. Besides, at STAT3, the Dmax at 1 µM was greater than 80% and the 50% degradation concentration (DC50) was less than 0.01 µM. In addition, the IC50 in the test with SU-DHL-1 cells lay within 0.01 to 0.1 µM.

In turn, `CCS(=O)(=O)c1ccc(CNC(=O)[C@H](CCC(N)=O)NC(=O)[C@@H]2CC[C@@H]3CCN(C(=O)CCCCc4cn([C@H](C(=O)N5C[C@H](O)C[C@H]5C(=O)N[C@@H](CN5CCOCC5)c5ccc(-c6scnc6C)cc5)C(C)(C)C)nn4)C[C@H](NC(=O)c4cc5cc(C(=O)P(=O)(O)O)ccc5[nH]4)C(=O)N32)cc1` [Compound 16, (2-(((5S,8S,10aR)-8-(((S)-5-amino-1-((4-(ethylsulfonyl)benzyl)amino)-1,5-dioxopentan-2-yl)carbamoyl)-3-(5-(1-((S)-1-((2S,4R)-4-hydroxy-2-(((R)-1-(4-(4-methylthiazol-5-yl)phenyl)-2-morpho-linoethyl)carbamoyl)pyrrolidin-1-yl)-3,3-dimethyl-1-oxobutan-2-yl)-1H-1,2,3-triazol-4-yl)pentanoyl)-6-oxodecahydropyrrolo[1,2-a][1,5]diazocin-5-yl)carbamoyl)-1H-indole-5-carbonyl)phosphonic acid] returned an IC50 in the test with SUP-M2 cells (SUP-M2, 96 h) of 0.1 to 1 µM. Moreover, on STAT3, the Dmax at 1 µM was greater than 80% and the DC50 was in the range of 0.01 to 0.1 µM. In the test on SU-DHL-1 cells, this compound had an IC50 of 0.1 to 1 µM.

In the case of `CCS(=O)(=O)c1ccc(CNC(=O)[C@H](CCC(N)=O)NC(=O)[C@@H]2CC[C@@H]3CCN(C(=O)CCCCc4cn([C@H](C(=O)N5C[C@H](O)C[C@H]5C(=O)N[C@@H](CCN5CCOCC5)c5ccc(-c6scnc6C)cc5)C(C)(C)C)nn4)C[C@H](NC(=O)c4cc5cc(C(=O)P(=O)(O)O)ccc5[nH]4)C(=O)N32)cc1` [Compound 17, (2-(((5S,8S,10aR)-8-(((S)-5-amino-1-((4-(ethylsulfonyl)benzyl)amino)-1,5-dioxopentan-2-yl)carbamoyl)-3-(5-(1-((S)-1-((2S,4R)-4-hydroxy-2-(((S)-1-(4-(4-methylthiazol-5-yl)phenyl)-3-morpholinopropyl)carbamoyl)pyrrolidin-1-yl)-3,3-dimethyl-1-oxobutan-2-yl)-1H-1,2,3-triazol-4-yl)pentanoyl)-6-oxodecahydropyrrolo[1,2-a][1,5]diazocin-5-yl)carbamoyl)-1H-indole-5-carbonyl)phosphonic acid], the concentration for half-maximal inhibition (IC50) in the test with SUP-M2 cells (SUP-M2, 96 h) lay within 0.1 to 1 µM. At STAT3, the maximal degradation (Dmax) at 1 µM was greater than 80% and the 50% degradation concentration (DC50) is 0.1 to 1 µM. Besides, the IC50 with SU-DHL-1 cells is 0.1 to 1 µM.

Turning to `CCS(=O)(=O)c1ccc(CNC(=O)[C@H](CCC(N)=O)NC(=O)[C@@H]2CC[C@@H]3CCN(C(=O)[C@H]4CC[C@H](c5cn([C@H](C(=O)N6C[C@H](O)C[C@H]6C(=O)N[C@@H](C)c6ccc(-c7scnc7C)cc6)C(C)(C)C)nn5)CC4)C[C@H](NC(=O)c4cc5cc(C(=O)P(=O)(O)O)ccc5[nH]4)C(=O)N32)cc1` [Compound 18, (2-(((5S,8S,10aR)-8-(((S)-5-amino-1-((4-(ethylsulfonyl)benzyl)amino)-1,5-dioxopentan-2-yl)carbamoyl)-3-((1S,4S)-4-(1-((S)-1-((2S,4R)-4-hydroxy-2-(((S)-1-(4-(4-methylthiazol-5-yl)phenyl)ethyl)carbamoyl)pyrrolidin-1-yl)-3,3-dimethyl-1-oxobutan-2-yl)-1H-1,2,3-triazol-4-yl)cyclohexane-1-carbonyl)-6-oxodecahydropyrrolo[1,2-a][1,5]diazocin-5-yl)carbamoyl)-1H-indole-5-carbonyl)phosphonic acid], the IC50 in the test on SUP-M2 cells (SUP-M2, 96 h) lay in the range of 0.1 to 1 µM; in the test on SU-DHL-1 cells, 0.01 to 0.1 µM. In addition, the Dmax at 1 µM at STAT3 is greater than 80%. Also, the DC50 on STAT3 is 0.01 to 0.1 µM.

Regarding `CC(=O)N1CC[C@H]2CC[C@@H](C(=O)N[C@@H](CCC(N)=O)COc3cccc(CCCc4cn([C@H](C(=O)N5C[C@H](O)C[C@H]5C(=O)N[C@@H](C)c5ccc(-c6scnc6C)cc5)C5CCCCC5)nn4)c3Cl)N2C(=O)[C@@H](NC(=O)c2cc3cc(C(=O)P(=O)(O)O)ccc3[nH]2)C1` [Compound 19, (2-(((5S,8S,10aR)-3-acetyl-8-(((S)-5-amino-1-(2-chloro-3-(3-(1-((S)-1-cyclohexyl-2-((2S,4R)-4-hydroxy-2-(((S)-1-(4-(4-methylthiazol-5-yl)phenyl)ethyl)carbamoyl)pyrrolidin-1-yl)-2-oxoethyl)-1H-1,2,3-triazol-4-yl)propyl)phenoxy)-5-oxopentan-2-yl)carbamoyl)-6-oxodecahydropyrrolo[1,2-a][1,5]diazocin-5-yl)carbamoyl)-1H-indole-5-carbonyl)phosphonic acid], the IC50 in the test with SUP-M2 cells (SUP-M2, 96 h) was less than 0.01 µM. Further, at STAT3, the greatest degradation seen (Dmax) at 1 µM was greater than 80% and the 50% degradation concentration (DC50) is less than 0.01 µM. Also, in the test with SU-DHL-1 cells, the 50% inhibitory concentration (IC50) was less than 0.01 µM.
